Measured values: PMC12006963, “Application of Deuterium in an M1 Positive Allosteric Modulator Back-Up Program: The Discovery of VU6045422” (ACS Chemical Neuroscience, 2025)

Assays:
Type in all cases: in vitro ADME
[1] = Predicted hepatic clearance, hepatic microsomes (human)
Method: (§1) After a 5 min preincubation, the reaction was initiated by the addition of NADPH (1 mM). At selected time intervals (0, 3, 7, 15, 25, and 45 min), aliquots were taken and subsequently placed into a 96-well plate containing cold acetonitrile with internal standard (50 ng/mL carbamazepine). Plates were then centrifuged at 3000 rcf (4 °C) for 10 min, and the supernatant was transferred to a separate 96-well plate and diluted 1:1 with water for LC/MS/MS analysis. The in vitro half-life ( 1/2, min, Eq. 1), intrinsic clearance (CLint, mL/min/kg, Eq. 2), and subsequent predicted hepatic clearance (CLhep, mL/min/kg, Eq. 3) was determined employing the […]
(§2) where k represents the slope from linear regression analysis of the natural log percent remaining of a test compound as a function of incubation time […]
(§3) (2) CLint = in vitroT1/2 x mg microsomes x gram liver x kg body wt ascale-up factors: of 20 (human) or 45 (rat) […]
(§4) where Qh (hepatic blood flow, mL/min/kg) is 21 (human) or 70 (rat).
(§5) LC/MS/MS Bioanalysis of Samples from Plasma Protein Binding and Intrinsic Clearance […]
(§6) Samples were analyzed on a Thermo Electron TSQ Quantum Ultra triple quad mass spectrometer (San Jose, CA) via electrospray ionization (ESI) with two Themo Electron Accella pumps (San Jose, CA), and a Leap Technologies CTC PAL autosampler (Carrboro, NC). Analytes were separated by gradient elution on a dual column system with two Thermo Hypersil Gold (2.1 x 30 mm, 1.9 µm) columns (San Jose, CA) thermostated at 40 °C. HPLC mobile phase A was 0.1% formic acid in water and mobile phase B was 0.1% formic acid in acetonitrile. The gradient started […]
(§7) for 0.2 min; returned to 10% B in 0.1 min. The total run time was 1.3 min and the HPLC flow rate was 0.8 mL/min. While pump 1 ran the gradient method, pump 2 equilibrated the alternate column isocratically at 10% B. Compound optimization, data collection, and processing was performed using Thermo Electron's QuickQuan software (v2.3) and Xcalibur (v2.0.7 SP1).
(§8) In vivo DMPK experimental:
(§9) Determination of brain to plasma ratio: […]

[2] = Predicted hepatic clearance, hepatic microsomes (dog)
Method: as §1, §2, §3, §4, §5, §6, §7, §8, §9

[3] = Brain homogenate binding; settings: pH 7.4; rat brain homogenate; read-out: fu,brain
Method: Plasma protein binding and Brain homogenate binding: Determination of fraction unbound (f u) in plasma was conducted in vitro via equilibrium dialysis using HTDialysis (HTD) membrane plates. The top half of the plate was filled with 100 uL of Dubelco’s Phosphate Buffered Saline, pH 7.4 (DPBS). Compounds were diluted into plasma from each species (5 µM final concentration), which was aliquoted in triplicate to the ‘bottom half’ of the prepared HTD plate wells. The HTD plate was sealed and incubated for 6 hours at 37 °C. Following incubation, each well (both top and bottom halves) were transferred (20 µL) to the corresponding wells of a 96-shallow-well (V-bottom) plate. The daughter plates were then matrix-matched (DPBS side wells received equal volume of plasma, and plasma side wells received equal volume of DPBS), and extraction solution (120 µL; acetonitrile containing 50 nM carbamazepine as IS) was added to all wells of both daughter plates to precipitate protein and extract test article. The plates were then sealed and centrifuged (3500 rcf) for 10 minutes at ambient temperature. […]
The unbound fraction (f u) was calculated following the equation below, and mean values for each species were calculated from 3 replicates.
A similar approach was used to determine the degree of brain homogenate binding, which employed the same methodology and procedure with the following modifications: 1) a final compound concentration of 1 μM was used, 2) naïve rat brains were homogenized in DPBS (1:3 composition of brain: DPBS, w/w) using a Mini-Bead Beater™ machine in order to obtain brain homogenate, which was then treated in the same manner as the plasma samples in the previously described plasma protein binding assay. Fraction unbound for both plasma and brain samples was determined using Equation 4. […]
The diluted fraction unbound (fu2) in brain was calculated in the same manner by using brain homogenate rather than plasma. Undiluted fraction unbound for the brain was calculated using […]

[4] = Hepatocyte metabolite identification (monkey); settings: monkey hepatocytes, 4 h incubation
Method: Prior to full characterization of deuterated analogues 3 and 5, they were incubated in rat, dog, monkey, and human hepatocytes, along with 1, to determine the amount of parent remaining, as well as the degree of undesired oxidative metabolites 2, 4, and 6 (Figure 2). […] For the gem-dideutero congener 3, metabolic stability was improved in vitro. […] Thus, in hepatocytes in vitro, the kinetic isotope effect engendered greater metabolic stability of the labile hot spot on the lactam. It remained to be seen if this effect would translate in vivo, but we first had to assess the impact of the deuterated analogues on molecular pharmacology, in vitro DMPK, standard low-dose in vivo DMPK and, if warranted, in vivo efficacy in a rat novel object recognition (NOR) behavioral assay.

Row | SMILES | Predicted CLhep [1] [mL/min/kg] | Predicted CLhep [2] [mL/min/kg] | fraction unbound at 6 h, 1 µM [3] | % Total Peak Area, parent remaining [4] [%]
1 | Cn1cc2c(-c3cc(F)c(CN4Cc5ncccc5C4=O)c(F)c3)cccc2n1 [compound 1] | 1.3 | 5.5 | 0.04 | 25.8
2 | [2H]C1([2H])c2ncccc2C(=O)N1Cc1c(F)cc(-c2cccc3nn(C)cc23)cc1F [compound 3] | 10.6 | 14.4 | 0.031 | 58.5
3 | [2H]C1([2H])c2ncccc2C(=O)N1Cc1c(F)cc(-c2cccc3nn(C([2H])([2H])[2H])cc23)cc1F [compound 5] | 8.0 | 8.8 | 0.036 | 60.5
